SMILES strings stand for the structures.

This assay has as its target T1, human IGF-IR (Homo sapiens, UniProt P08069).
T1 construct: complete human IGF-IR cDNA: GenBank Acc; No. NM_000875; expressed in transfected cells; host or cells: NIH-3T3 mouse fibroblasts
Description: cellular Capture ELISA: IGF-I induced autophosphorylation of IGF-IR in NIH-3T3 cells transfected with human IGF-IR. The format is cell-based. Particulars: by the methods described above. How it is done:
In this assay the activity of the compounds of the invention against Insulin-like growth factor I (IGF-1) induced autophosphorylation of the IGF-IR is determined. The assay is conducted as follows: For the assay NIH-3T3 mouse fibroblasts transfected with human IGF-IR cDNA (complete human IGF-IR cDNA: GenBank Acc. No. NM_000875), prepared as described in Kato et al., J. Biol. Chem. 268, 2655-61, 1993, are used. The cells which overexpress human IGF-IR are cultured in Dulbecco's minimal essential (DMEM) medium, containing 10% Fetal Calf Serum (FCS). For the assay 5,000 cells/well are plated on day 1 on 96-well plates (Costar #3595) in normal growth medium and incubated for 2 days at 37° C. in a standard CO2 cell incubator. […] On day 3 the medium is discarded and the cells are incubated for 24 h in minimal medium (DMEM, containing 0.5% FCS). […]
90 μl/well AP substrate (CDP-Star; obtained from Tropix; Cat. No.: MS100RY) are then added and the plates are incubated for 45 min at RT in the dark, followed by measuring AP activity in a Packard Top Count Microplate Scintillation Counter. The IC50 values for the compounds of formula I are calculated via linear regression analysis using the GraphPad Instat program (GraphPad Software, USA). […]

T1 sequence (P08069 31-1367): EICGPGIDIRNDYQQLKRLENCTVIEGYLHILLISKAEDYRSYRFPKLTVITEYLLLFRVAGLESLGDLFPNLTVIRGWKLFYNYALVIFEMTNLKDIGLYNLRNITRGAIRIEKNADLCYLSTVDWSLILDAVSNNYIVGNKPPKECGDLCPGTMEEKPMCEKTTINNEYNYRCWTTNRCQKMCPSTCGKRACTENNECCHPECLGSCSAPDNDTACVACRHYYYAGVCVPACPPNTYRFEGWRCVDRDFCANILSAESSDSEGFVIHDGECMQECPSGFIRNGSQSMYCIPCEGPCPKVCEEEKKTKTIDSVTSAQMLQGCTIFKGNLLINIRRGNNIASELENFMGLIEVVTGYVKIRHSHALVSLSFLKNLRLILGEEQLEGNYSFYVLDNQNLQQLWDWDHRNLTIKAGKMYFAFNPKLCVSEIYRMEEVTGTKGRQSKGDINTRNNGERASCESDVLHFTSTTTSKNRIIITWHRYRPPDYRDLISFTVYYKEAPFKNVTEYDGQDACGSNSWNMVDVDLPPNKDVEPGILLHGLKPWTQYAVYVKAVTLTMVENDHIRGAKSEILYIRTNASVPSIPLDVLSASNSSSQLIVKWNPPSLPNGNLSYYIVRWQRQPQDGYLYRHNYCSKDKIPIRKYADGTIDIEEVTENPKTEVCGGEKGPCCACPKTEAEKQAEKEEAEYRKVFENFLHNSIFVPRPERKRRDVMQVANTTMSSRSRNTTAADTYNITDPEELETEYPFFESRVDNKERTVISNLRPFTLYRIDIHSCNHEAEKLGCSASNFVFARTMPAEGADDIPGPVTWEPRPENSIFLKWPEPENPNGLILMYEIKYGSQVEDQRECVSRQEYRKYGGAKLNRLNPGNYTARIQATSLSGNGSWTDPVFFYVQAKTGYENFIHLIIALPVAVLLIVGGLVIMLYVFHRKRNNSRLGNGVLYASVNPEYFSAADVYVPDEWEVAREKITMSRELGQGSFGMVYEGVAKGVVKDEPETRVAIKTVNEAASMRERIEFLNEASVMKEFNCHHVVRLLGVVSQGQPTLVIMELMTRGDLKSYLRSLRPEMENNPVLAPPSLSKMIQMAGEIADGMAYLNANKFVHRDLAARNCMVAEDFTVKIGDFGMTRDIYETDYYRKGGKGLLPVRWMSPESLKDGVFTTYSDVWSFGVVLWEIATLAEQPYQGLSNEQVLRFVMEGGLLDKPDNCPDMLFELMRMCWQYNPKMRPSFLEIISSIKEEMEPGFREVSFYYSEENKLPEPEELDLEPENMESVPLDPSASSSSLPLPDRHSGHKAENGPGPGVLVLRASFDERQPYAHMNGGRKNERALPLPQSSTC

As to `CN(C)CCOc1ccc(Nc2nccc(-c3c[nH]nc3-c3ccc(OCc4ccccc4)cc3)n2)cc1` [Example 6, {4-[3-(4-Benzyloxy-phenyl)-1H-pyrazol-4-yl]-pyrimidin-2-yl}-[4-(2-dimethylamino-ethoxy)-phenyl]-amine], the “inhibition of IGF-1R (in words)” value was “shows inhibition”.
